Data reported in patent US9624161B2 (priority 2009, dated 2017).
“Also recorded” adds a separate entry of the source.

Columns and labels:
rats = assay: Gastrointestinal effects after oral administration in rats; format: in vivo, rat
[1] = system: morphine dependent rat model; assay: Morphine dependent rat model of hot flashes (tail skin temperature); format: in vivo; details: 5, 10, 15 and 30 mg/kg (FIG. 13)
Procedure: In addition to the similarities to the human condition, this experimental animal model has a short turn around time which makes it a useful high throughput screening tool for identifying compounds that can alleviate vasomotor symptoms using the tail skin temperature (TST). TST probes TA-40 (Data Sciences International, MN) were taped to the base of the tails and baseline temperatures were obtained for 15 minutes. After 15 minutes the animals were treated with naloxone (1 mg/kg, SQ) to reverse the effects of the morphine. Tail skin temperature (TST) was measured for one hour post-naloxone treatment with a sampling frequency of 5 secs throughout the course of the experiment. Following the data acquisition, the moving average of the temperature recorded every 60 seconds for each animal was calculated and further analyzed. Baseline temperature was computed as the average temperature acquired over the 15 minutes preceding naloxone administration. The area under the curve (AUC) was calculated by subtracting all the values post-naloxone administration from the baseline using a linear trapezoid method.

[2] = Oral bioavailability in dogs; format: in vivo; details: dog, plasma, depending on the formulation and route of administration
Procedure: Formulations using polyethylene glycol 300 (PEG300) generally produced higher exposures than microemulsions prepared in Tween 80 diluted in deionized water. […] Importantly, in dogs the exposure in the male 30 mg/kg PEG300 oral dose group exceeded the exposure necessary to produce the maximal effect on prostate reduction in the rat model of LH suppression.

[3] = system: estrogen related receptor (ERR-α, ERR-β and ERR-γ); assay: Estrogen related receptor transactivation, DES versus Compound IV; format: cell-based; details: FIG. 12C
[4] = system: treatment naïve prostate cancer patients; assay: Study 5: loading dose study (1000 mg BID, 1500 mg BID) in treatment naïve prostate cancer patients; format: in vivo; details: for Castration (%): patients receiving >14 days; for Subjects that reached castrate levels of serum total testosterone: subjects that had reached Day 28
Procedure: Another study (Study 5) to assess 1000 mg twice per day and 1500 mg twice daily loading doses of Compound IV for 28 days was conducted. Subjects that were castrate on Day 28 received either 1000 mg or 2000 mg Compound IV daily to maintain the castration.
Thirty (30) and 28 subjects were randomized to the 1500 mg BID and 1000 mg BID loading doses, respectively. Among the subjects that had reached Day 28, 90% (18/20) of the subjects in the 1500 mg BID dose group and 94% (17/18) of the subjects in the 1000 mg BID dose group had reached castrate levels of serum total testosterone. During this study, two (2) subjects in the 1500 mg BID dose group experienced a VTE, including one fatal pulmonary embolus (PE) and three (3) subjects in the 1000 mg BID dose group experienced a VTE. See FIG. 26 for an overview of all the clinical studies on Compound IV.

[5] = system: castrated male cynomolgus monkeys; assay: Compound IV studies on castrated monkeys, 90 days (Example 22); format: in vivo, cynomolgus monkey
[6] = system: prostate epithelial cancer cells; assay: Proliferation of prostate epithelial cancer cells in vitro; format: cell-based
rat ER-β = biological target: T1, rat ER-β (Rattus norvegicus, UniProt Q62986); assay: Transactivation assay (agonist and antagonist modes), HEK-293 cells, ERE-LUC; format: cell-based
T1 construct: expressed in transfected cells; host or cells: HEK-293

[7] = system: isolated canine Purkinje fibers; assay: Action potential duration in isolated canine Purkinje fibers in vitro; details: 10 and 100 μM
Procedure: Compound IV exerts little or no in vitro inhibitory effects (IC50≧300 μM) on the hERG channel.

T1 sequence (Q62986 whole entry): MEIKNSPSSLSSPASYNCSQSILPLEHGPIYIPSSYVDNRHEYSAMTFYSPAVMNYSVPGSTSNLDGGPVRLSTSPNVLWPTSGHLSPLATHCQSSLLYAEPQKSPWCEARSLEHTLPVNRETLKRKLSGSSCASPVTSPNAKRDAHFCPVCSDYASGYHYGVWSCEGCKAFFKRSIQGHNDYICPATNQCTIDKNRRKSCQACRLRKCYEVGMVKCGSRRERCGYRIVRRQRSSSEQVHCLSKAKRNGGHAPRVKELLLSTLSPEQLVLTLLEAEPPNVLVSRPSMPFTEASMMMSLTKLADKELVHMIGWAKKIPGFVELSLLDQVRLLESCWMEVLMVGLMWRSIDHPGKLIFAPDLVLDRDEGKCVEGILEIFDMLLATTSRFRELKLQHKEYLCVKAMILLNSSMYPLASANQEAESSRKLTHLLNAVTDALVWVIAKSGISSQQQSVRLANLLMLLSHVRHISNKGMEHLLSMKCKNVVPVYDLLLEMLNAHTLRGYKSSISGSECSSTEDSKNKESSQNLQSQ

## O=C(c1ccc(O)c(F)c1)N(c1ccc(O)cc1)c1ccc(F)cc1 [Compound IV, 3-fluoro-N-(4-fluorophenyl)-4-hydroxy-N-(4-hydroxyphenyl)benzamide]
rats; oral 30 mg/kg in rats
  Gastrointestinal motility and gastric acidity: significant increase
rats; oral 30 to 300 mg/kg in rats
  Peristalsis: significant increase
[1]
  Effect on hot flashes (tail skin temperature after naloxone): attenuated hot flashes
[2]
  bioavailability: 3 to 12%
[3]
  Effect on estrogen related receptor (ERR) transactivation: does not; also recorded: failed to crossreact
[4]; 1000 mg BID dose group
  Subjects that experienced a VTE: 3 subjects
[4]; 1000 mg BID, D28
  Castration (%): 84.2%
[4]; 1000 mg BID, Ever
  Castration (%): 90%
[4]; 1000 mg BID
  Subjects that reached castrate levels of serum total testosterone: 94%
[4]; 1500 mg BID dose group, including one fatal pulmonary embolus
  Subjects that experienced a VTE: 2 subjects
[4]; 1500 mg BID, D28
  Castration (%): 85.7%
[4]; 1500 mg BID, Ever
  Castration (%): 95.2%
[4]; 1500 mg BID
  Subjects that reached castrate levels of serum total testosterone: 90%
[5]; 1, 10, 100 mg/kg/day oral (groups 4, 5 and 6), within four weeks
  Serum PSA levels in castrate animals: significantly suppressed
[5]; after thirteen weeks of treatment
  Mean prostate weights at necropsy: significantly reduces
[5]; castrated animals treated with Compound IV
  Testosterone flare: not observed
[6]
  Proliferation of prostate epithelial cancer cells: does not increase proliferation; also recorded: did not increase proliferation
Rat ER-β
  Fold less potency to stimulate ERβ-mediated transcription compared to estradiol: ~1400 fold
[7]
  APD50: dose-dependently decreased
  APD90: dose-dependently decreased
